Experimental data reported in PubChem BioAssay AID2060607 (Molecular Pharmacology Branch, DTP, NCI, 2025).
“And” between values parts separate entries of the source, which are not always exact repeats. Identical values can stand only once.

Tested on: 876862-298-R-J1-PDC complex spheroids, viability % test/control
Assay: Anticancer human tumor 876862-298-R-J1-PDC patient-derived endometrial carcinoma cell line growth inhibition [CLK]
Conditions: for viability, T/C: stronger effect = lower value
In short: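 Multi-cell-type spheroids combined patient-derived tumor cells with HUVEC endothelial cells and human mesenchymal stem cells. Paired agents were dosed in half-log steps down from about clinical Cmax, or from 10 microM where Cmax was unknown.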
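Also: spheroids exposed to drugs for 7 days before readout.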
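For viability, T/C in this document: 100% = DMSO vehicle control wells.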

Cn1ncnc1[C@H]1c2n[nH]c(=O)c3cc(F)cc(c23)N[C@@H]1c1ccc(F)cc1 + CNC(=O)c1ccc(Nc2nc(OC3CCCC3)c3c(-c4ccc5nc(C)oc5c4)c[nH]c3n2)c(OC)c1
IC50 (curve of first compound, second compound 0.0316 µM): > 100 nM
IC50 (curve of first compound, second compound 0.1 µM): < 0.316 nM
IC50 (curve of first compound, second compound 0.316 µM): < 0.316 nM
IC50 (curve of first compound, second compound 1 µM): < 0.316 nM
IC50 (curve of first compound, second compound 3.16 µM): < 0.316 nM
IC50 (curve of first compound, second compound 10 µM): < 0.316 nM
viability, T/C (second compound 0.0316 µM, first compound 0.000316 µM): 67.3%
viability, T/C (second compound 0.0316 µM, first compound 0.001 µM): 84.6%
viability, T/C (second compound 0.0316 µM, first compound 0.00316 µM): 73.4%
viability, T/C (second compound 0.0316 µM, first compound 0.01 µM): 79.9%
viability, T/C (second compound 0.0316 µM, first compound 0.0316 µM): 89.7%
viability, T/C (second compound 0.0316 µM, first compound 0.1 µM): 77.5%
viability, T/C (second compound 0.1 µM, first compound 0.000316 µM): 42.2%
viability, T/C (second compound 0.1 µM, first compound 0.001 µM): 45.4%
viability, T/C (second compound 0.1 µM, first compound 0.00316 µM): 46.7%
viability, T/C (second compound 0.1 µM, first compound 0.01 µM): 46.5%
viability, T/C (second compound 0.1 µM, first compound 0.0316 µM): 53%
viability, T/C (second compound 0.1 µM, first compound 0.1 µM): 45.6%
viability, T/C (second compound 0.316 µM, first compound 0.000316 µM): 40.9%
viability, T/C (second compound 0.316 µM, first compound 0.001 µM): 44.5%
viability, T/C (second compound 0.316 µM, first compound 0.00316 µM): 46%
viability, T/C (second compound 0.316 µM, first compound 0.01 µM): 43.3%
viability, T/C (second compound 0.316 µM, first compound 0.0316 µM): 44.1%
viability, T/C (second compound 0.316 µM, first compound 0.1 µM): 36.7%
viability, T/C (second compound 1 µM, first compound 0.000316 µM): 31.3%
viability, T/C (second compound 1 µM, first compound 0.001 µM): 32.9%
viability, T/C (second compound 1 µM, first compound 0.00316 µM): 30%
viability, T/C (second compound 1 µM, first compound 0.01 µM): 28.5%
viability, T/C (second compound 1 µM, first compound 0.0316 µM): 26.8%
viability, T/C (second compound 1 µM, first compound 0.1 µM): 27.9%
viability, T/C (second compound 3.16 µM, first compound 0.000316 µM): 22.8%
viability, T/C (second compound 3.16 µM, first compound 0.001 µM): 23.2%
viability, T/C (second compound 3.16 µM, first compound 0.00316 µM): 19.6%
viability, T/C (second compound 3.16 µM, first compound 0.01 µM): 21.5%
viability, T/C (second compound 3.16 µM, first compound 0.0316 µM): 21.7%
viability, T/C (second compound 3.16 µM, first compound 0.1 µM): 18.5%
viability, T/C (second compound 10 µM, first compound 0.000316 µM): 21.1%
viability, T/C (second compound 10 µM, first compound 0.001 µM): 22.4%
viability, T/C (second compound 10 µM, first compound 0.00316 µM): 20%
viability, T/C (second compound 10 µM, first compound 0.01 µM): 23.3%
viability, T/C (second compound 10 µM, first compound 0.0316 µM): 17.5%
viability, T/C (second compound 10 µM, first compound 0.1 µM): 16.2%

O=c1[nH]cc(F)c(=O)[nH]1
viability, T/C (compound 0.0316 µM): 99.1% and 101%
viability, T/C (compound 0.1 µM): 93.2% and 107%
viability, T/C (compound 0.316 µM): 100% and 99.6%
viability, T/C (compound 1 µM): 104% and 101%
viability, T/C (compound 3.16 µM): 70% and 56.4%
viability, T/C (compound 10 µM): 54.1% and 46.7%
IC50 (curve of compound): > 10000 nM and 6770 nM
